# Source: patent publication EP0232423A1, “CIRCULATION IMPROVING AGENT” (GRELAN PHARMACEUTICAL CO., LTD., priority 1985, dated 1987)
# Structures can show the parent of a compound that is named as a salt.
# Columns and labels:
# isolated femoral artery [1] = assay: Relaxation of isolated femoral artery contracted by 50 mM KCl; type: cell-based, Mongrel dogs; settings: Canis lupus familiaris, 50 mM KCl contraction; for inhibition at 100 µM: 10^-4 M; for inhibition at 10 µM: 10^-5 M; for inhibition at 1 µM: 10^-6 M; for inhibition at 0.1 µM: 10^-7 M; for EC50: relaxation of isolated femoral artery, read-out: ED50 (the source's name)
# Method: (§1) Mongrel dogs of either sex (body weight 10-17 kg) were killed by bleeding under anesthetization with pentobarbital sodium (tradename: Nembutai ® Abbott Co., USA). Thereafter, the basilar and femoral arteries were extracted and attached blood and connective tissues were carefully removed in a dish filled with Krebs bicarbonate solution (composition: NaCl 117.7 mM, KC1 4.7 mM, CaCl2 2.5 mM, MgSo4 1.2 mM, glucose 10 mM, NaHCO3 24.4 mM). Thereafter, ring preparations were made therefrom. This preparation was suspended in a bathing tube of 10 ml filled with Krebs bicarbonate solution aerated with 95 % 02 and 5 % C02.
# (§2) Then, samples of basilar and femoral arteries were contracted by application of 50 mM KC1. After confirming that the contraction was sustained, (a) compound (I) (erythro form) lactate, (b) compound (I) (threo form) lactate and (c) ifenprodil; [2-(4-benzyl- piperidino-l-(4-hydroxyphenyl)propane-l-ol] tartrate were, respectively, administered as test compounds and the dose-relaxation response was examined.
# (§3) A strain gauge transducer (model SB-lT manufactured by Nihon Koden Co.) was employed for recording of change of tension and isometric contraction was recorded on a recorder (model QPD 53 made by Hitachi Ltd . ) .
# isolated basilar artery [2] = assay: Relaxation of isolated basilar artery contracted by 50 mM KCl; type: cell-based, Mongrel dogs; settings: Canis lupus familiaris, 50 mM KCl contraction; for inhibition at 1 µM: 10^-6 M; for inhibition at 0.1 µM: 10^-7 M; for inhibition at 0.01 µM: 10^-8 M; for EC50: relaxation of isolated basilar artery, read-out: ED50 (the source's name)
# Method: as §1, §2, §3
# isolated femoral artery [3] = assay: Ca antagonistic action: Ca-induced contraction in K-depolarized femoral artery; type: cell-based, Mongrel dogs; settings: Canis lupus familiaris, 0.25 h, 50 mM KCl, Ca-free bath, cumulative CaCl2, compound applied 15 minutes before, read-out: pA2 values on Ca-induced contraction in depolarized muscle by K (converted)
# Method: (§4) The same measurements as in Test Example 2 were carried out using the isolated basilar artery and isolated femoral artery treated in accordance with the method of Test Example 2.
# (§5) For examination of the Ca antagonistic action, the depolarization of both isolated arteries was induced with 50 mM KC1 in a bathing solution from which Ca had been removed and then CaCl2 was cumulatively applied thereto. As test compounds, (a) compound (I) (erythro form) lactate and (b) ifenprodil tartrate were applied at 15 minutes before addition of CaCl2.
# isolated basilar artery [4] = assay: PGF2α-induced 45Ca uptake in isolated basilar artery; type: cell-based, Mongrel dogs; settings: 10^-5 M + 10^-5 M PGF2α; PGF2α alone 166.2 ± 6.0
# Excerpt: (§6) Using the isolated basilar artery and femoral artery treated in accordance with Test Example 2, the activity of (a) compound (I) (lactate), (b) ifenprodil tartrate and (c) verapamil hydrochloride against ^45Ca influx and ^45Ca uptake were examined by the conventional method (J. Membran. Biol., vol. 59, page 19, 1981).
# α1-adrenoceptor = assay: Antagonism of phenylephrine (α1-agonist) contraction in saphenous vein; type: cell-based, Mongrel dogs; settings: α1 - agonist: phenylephrine; saphenous vein; 15 minutes treatment
# Excerpt: (§7) In this experiment, phenylephrine and clonidine were used as al-agonist and a2-agonist, respectively, and these agonists were cumulatively applied to obtain a dose-response curve.
# ddY male mice [5] = assay: Prolongation of gasping time in complete cerebral ischemic (decapitated) animals; type: in vivo; settings: for Ratio of time (%): prolongation as compared with the control group; for Duration time of gasping: decapitated after 30 minutes
# Method: After 30 minutes from administration, the.mice were decapitated and the duration time of gasping was measured. The control group was drug-untreated.
# platelets of rabbit = assay: Fluidity of platelet membrane (fluorescence polarization); type: cell-based; design: Fluorescence polarization: unit not given here; settings: for Fluorescence polarization: fluidity increases as value decreases
# Excerpt: The activity of compound (I) (lactate) and ifenprodil tartrate against the fluidity of platelet membrane was examined according to a known method (Biochimica et Biophysica Acta, vol. 798, page 210, 1984) using platelets of rabbit and using n-butyl alcohol as a positive control.
# isolated femoral artery [6] = assay: K-induced 45Ca uptake in isolated femoral artery; type: cell-based, Mongrel dogs; settings: 50 mM KCl alone 586.0 ± 17.9
# Excerpt: as §6
# isolated femoral artery [7] = assay: K-induced 45Ca influx in isolated femoral artery; type: cell-based, Mongrel dogs; settings: 10^-5 M + 50 mM KCl
# Excerpt: as §6
# ddY male mice [8] = assay: Ameliorative activity against damage of cerebral hypoxia (reduced pressure); type: in vivo; settings: for Time required for stoppage of respiration: 30 minutes before, pressure reduced to 160 mmHg
# Method: Thirty mg/kg each of compound (I) (lactate) and ifenprodil tartrate and 16 mg/kg of phentolamine, which is an a-adrenoceptor blocker, were intraperitoneally administered to ddY male mice, respectively. […] Time from start of reduction of pressure until stop of respiration in the mice was measured. The control group was drug-untreated.
# isolated coronary artery = assay: Relaxation of isolated coronary artery; type: cell-based, Mongrel dogs; settings: Canis lupus familiaris, read-out: ED50 (the source's name)
# Method: as §1, §2, §3
# Experiments were conducted in accordance with the method of Test Example 2 with use of the coronary artery in place of the basilar and femoral arteries. […]
# α2-adrenoceptor = assay: Antagonism of clonidine (α2-agonist) contraction in saphenous vein; type: cell-based, Mongrel dogs; settings: α2 - agonist: clonidine, non-competitive antagonism, 15 min
# Excerpt: as §7
# isolated basilar artery [9] = assay: Ca antagonistic action: Ca-induced contraction in K-depolarized basilar artery; type: cell-based, Mongrel dogs; settings: Canis lupus familiaris, 0.25 h, 50 mM KCl, Ca-free bath, cumulative CaCl2, compound applied 15 minutes before, read-out: pA2 values on Ca-induced contraction in depolarized muscle by K (converted)
# Method: as §4, §5
# ddY male mice [10] = assay: Thromboembolic respiratory depression induced by ADP; type: in vivo; settings: ADP 40 mg/kg i.v.
# Method: The degree of formation of platelet thrombi in the pulmonary vessels of mice induced by intravenous administration of ADP can be measured based on the decrease in the respiratory rate. The anti-platelet thrombotic action of test drugs can be evaluated by using this decrease in the respiratory rate as a standard. […] Relative respiratory rate (%) was calculated according to the following formula. [formula] (cf. "Thrombosis Research", Vol. 35, Page 311, 1984)
# [11] = pre-incubation 15 min, 50 mM KCl alone 94.6 ± 5.2
# [12] = pre-incubation 45 min, 50 mM KCl alone 98.4 ± 6.8
smiles,measurement,setting,value
C[C@@H]([C@@H](O)c1ccc(OCc2ccccc2)cc1)N1CCC(Cc2ccccc2)CC1 (relative stereo) [Compound (I) (threo form) lactate],inhibition at 100 µM,"isolated femoral artery [1]; mean, n = 4 - 5",62.3%
same,inhibition at 10 µM,"isolated femoral artery [1]; mean, n = 4 - 5",22.5%
same,inhibition at 1 µM,"isolated femoral artery [1]; mean, n = 4 - 5",6.8%
same,inhibition at 0.1 µM,"isolated femoral artery [1]; mean, n = 4 - 5",0%
same,EC50,isolated femoral artery [1],51000 nM
same,inhibition at 10 µM,"isolated basilar artery [2]; 10^-5 M, mean, n = 4 - 5",100%
same,inhibition at 1 µM,"isolated basilar artery [2]; mean, n = 4 - 5",91.7%
same,inhibition at 0.1 µM,"isolated basilar artery [2]; mean, n = 4 - 5",72.1%
same,inhibition at 0.01 µM,"isolated basilar artery [2]; mean, n = 4 - 5",10.8%
same,EC50,isolated basilar artery [2],85 nM
CC(C(O)c1ccc(OCc2ccccc2)cc1)N1CCC(Cc2ccccc2)CC1 (stereo not drawn) [Compound (I) lactate],Kb,isolated femoral artery [3],1550 nM
same,PGF2α-induced ^45Ca uptake in isolated basilar artery,isolated basilar artery [4],135.2 ± 12.7 (*) n mol/g wt. tissue
same,pA2 value,α1-adrenoceptor,pA2 = 7.03 ± 0.04
same,Ratio of time (%),ddY male mice [5]; 3 mg/kg i.p.,3.8%
same,Duration time of gasping,ddY male mice [5]; 3 mg/kg intraperitoneally,21.7 ± 0.4 s
same,Ratio of time (%),ddY male mice [5]; 10 mg/kg i.p.,27.8%
same,Duration time of gasping,ddY male mice [5]; 10 mg/kg intraperitoneally,26.7 ± 1.8 s
same,Ratio of time (%),ddY male mice [5]; 30 mg/kg i.p.,116.3%
same,Duration time of gasping,ddY male mice [5]; 30 mg/kg intraperitoneally,45.2 ± 3.5 s
same,effect on fluidity of platelet membrane,platelets of rabbit,an increase in the fluitidy of platelet membrane
same,K-induced ^45Ca uptake in isolated femoral artery,isolated femoral artery [6]; 10^-4 M + 50 mM KCl,378.8 ± 27.9 n mol/g wt. tissue
same,K-induced ^45Ca uptake in isolated femoral artery,isolated femoral artery [6]; 10^-5 M + 50 mM KCl,461.4 ± 26.7 n mol/g wt. tissue
same,K-induced ^45Ca uptake in isolated femoral artery,isolated femoral artery [6]; 10^-6 M + 50 mM KCl,724.4 ± 32.4 n mol/g wt. tissue
same,K-induced ^45Ca influx in isolated femoral artery,isolated femoral artery [7]; [11],106.2 ± 4.1 n mol/g wt. tissue
same,K-induced ^45Ca influx in isolated femoral artery,isolated femoral artery [7]; [12],38.2 ± 2.6 n mol/g wt. tissue
same,K-induced ^45Ca influx in isolated femoral artery,isolated femoral artery [7]; pre-incubation 135 min,28.3 ± 1.1 n mol/g wt. tissue
same,Time required for stoppage of respiration,ddY male mice [8]; 30 mg/kg intraperitoneally,126.1 ± 12.1 s
same,EC50,isolated coronary artery,2200 nM
same,pD2' value,α2-adrenoceptor,pD2' = 4.87^Note 4)
same,Kb,isolated basilar artery [9],18.6 nM
CC(C)(CO)[C@@H](O)C(=O)NCCCC(=O)O [Calcium hopantenate],Ratio of time (%),ddY male mice [5]; 300 mg/kg i.p.,10.5%
same,Duration time of gasping,ddY male mice [5]; 300 mg/kg intraperitoneally,23.1 ± 0.6 s
OC[C@H]1OC(O)[C@H](O)[C@@H](O)[C@@H]1O (stereo partly drawn) [Glucose],Ratio of time (%),ddY male mice [5]; 5.4 g/kg i.p.,10.5%
same,Duration time of gasping,ddY male mice [5]; 5.4 g/kg intraperitoneally,23.1 ± 0.6 s
"CCCCO [n-Butyl alcohol, n-butyl alcohol]",effect on fluidity of platelet membrane,platelets of rabbit,an increase in the fluitidy of platelet membrane
same,Fluorescence polarization,platelets of rabbit; 21 µM,7±5
same,Fluorescence polarization,platelets of rabbit; 42 µM,6±5
same,Fluorescence polarization,platelets of rabbit; 62 µM,-14±2
COc1ccc(CCN(C)CCCC(C#N)(c2ccc(OC)c(OC)c2)C(C)C)cc1OC (stereo not drawn) [Verapamil hydrochloride],PGF2α-induced ^45Ca uptake in isolated basilar artery,isolated basilar artery [4],134.0 ± 4.1 n mol/g wt. tissue
same,K-induced ^45Ca uptake in isolated femoral artery,isolated femoral artery [6]; 10^-5 M + 50 mM KCl,344.7 ± 14.4 n mol/g wt. tissue
same,K-induced ^45Ca influx in isolated femoral artery,isolated femoral artery [7]; [11],76.7 ± 2.0 n mol/g wt. tissue
same,K-induced ^45Ca influx in isolated femoral artery,isolated femoral artery [7]; [12],29.8 ± 2.8 n mol/g wt. tissue
same,K-induced ^45Ca influx in isolated femoral artery,isolated femoral artery [7]; pre-incubation 135 min,64.1 ± 5.0 n mol/g wt. tissue
COc1ccc([C@@H]2Sc3ccccc3N(CCN(C)C)C(=O)[C@@H]2OC(C)=O)cc1 [Diltiazem-HCl],Relative respiratory rate (%),"ddY male mice [10]; 10 mg/kg oral, 1 hr after administration",56.3 ±8.5 (n=6) %
same,Relative respiratory rate (%),"ddY male mice [10]; 10 mg/kg oral, 2 hr after administration",38.3 ±7.3 (n=7) %
C[C@@H]([C@H](O)c1ccc(OCc2ccccc2)cc1)N1CCC(Cc2ccccc2)CC1 (relative stereo) [Compound (I) (erythro form) lactate],inhibition at 100 µM,"isolated femoral artery [1]; mean, n = 4 - 5",85.8%
same,inhibition at 10 µM,"isolated femoral artery [1]; mean, n = 4 - 5",59.9%
same,inhibition at 1 µM,"isolated femoral artery [1]; mean, n = 4 - 5",34.2%
same,inhibition at 0.1 µM,"isolated femoral artery [1]; mean, n = 4 - 5",1.2%
same,inhibition at 0.01 µM,"isolated femoral artery [1]; 10^-8 M, mean, n = 4 - 5",0.4%
same,EC50,isolated femoral artery [1],7200 nM
same,inhibition at 1 µM,"isolated basilar artery [2]; mean, n = 4 - 5",100%
same,inhibition at 0.1 µM,"isolated basilar artery [2]; mean, n = 4 - 5",39.2%
same,inhibition at 0.01 µM,"isolated basilar artery [2]; mean, n = 4 - 5",7%
same,EC50,isolated basilar artery [2],160 nM
Cc1ccc(N(CC2=NCCN2)c2cccc(O)c2)cc1 [Phentolamine],Time required for stoppage of respiration,ddY male mice [8]; 16 mg/kg intraperitoneally,54.5 ± 2.9 s
same,effect on survival time (cerebral hypoxia),"ddY male mice [8]; i.p., 30 mg/kg compound (I) and ifenprodil tartrate, 16 mg/kg phentolamine",shortens it
Clc1ccccc1CN1CCc2sccc2C1 [Ticlopidine-HCl],Relative respiratory rate (%),"ddY male mice [10]; 30 mg/kg oral, 1 hr after administration, Compound (I) = erythro form",49.3 ±4.3 (n=6) %
same,Relative respiratory rate (%),"ddY male mice [10]; 30 mg/kg oral, 2 hr after administration, Compound (I) = erythro form",33.9 ±7.0 (n=7) %
same,Relative respiratory rate (%),"ddY male mice [10]; 30 mg/kg oral, 3 hr after administration, Compound (I) = erythro form",37.2 ±10.5 (n=9) %
